Assays:
BMDCs [1] = experiment: Cell uptake of Cy5-labeled nanoparticles by flow cytometry; type: cell-based, mouse; conditions: co-incubation with Cy5-labeled AnCHNPs 5 μg/mL
Method: BMDCs were seeded into 6-well plates at a density of 1×10^6 cells per well and incubated overnight. The cells were then treated with Cy-5 labeled PCHNPs and AnCHNPs (5 μg/mL) for 2 hrs. Furthermore, different endocytosis inhibitors Sodium azide (NaN3, 99.5%, Sigma-Aldrich, Lot #S2002), Dynasore (C18H14N2O4, 98%, Sigma-Aldrich, Lot #324410), Nystatin (Sigma-Aldrich, Lot #N4014), Chlorpromazine (C17H19ClN2S·HCl, 98%, Sigma-Aldrich, Lot #C8138) were used. The Fluorescence of Cy-5 taken up by DCs were measured by flow cytometry.

EL4 cells [2] = experiment: Cellular uptake of Cy5-labelled nanoparticles in EL4 cells; type: cell-based; conditions: EL4, co-incubation
[3] = tested on: C57BL/6 mice bearing B16F10-OVA tumors; experiment: Therapy study, combination with chemotherapy (carboplatin); type: in vivo; conditions: carboplatin alone, 40 mg/kg i.p.
Method: Combination with chemotherapy: This was investigated in C57BL/6 mice bearing B16F10-OVA tumors. When tumor sizes reached ~50 mm3, the animals were randomized to receive the following treatments (n=5 for each group): (1) PBS (i.t., 50 μL*2, Day 0 and Day 2); (2) Carboplatin (i.p., 40 mg/kg, 100 μL, Day 0); (3) Carboplatin (i.p., 40 mg/kg, 100 μL, Day 0)+AnCHNPs (i.t., 200 μg/kg*2, 50 μL, Day 0 and Day 2). The tumor size and body weight were inspected daily. The tumor was measured in two dimensions with a caliper and tumor volume was estimated as (length)×(width) 2/2.

CFSE-labeled BMDCs = experiment: Transwell DC migration assay; type: cell-based, mouse; conditions: 5 or 10 μg/mL, 24 h, B16F10-OVA in lower chamber
EL4 cells [4] = conditions: dose as equivalent calcium concentration
EL4 cells [5] = experiment: Intracellular calcium levels (Fluo-3AM); type: cell-based; conditions: same calcium concentration
Method: Changes in intracellular calcium levels were measured using Fluo-3AM as an indicator.

[6] = tested on: BMDCs/B16F10-OVA (pre-irradiated, 100 Gy) co-cultures; experiment: DC activation and antigen-presentation in co-culture (flow cytometry, ELISA); type: cell-based, mouse; conditions: comparators
[7] = tested on: B16F10-OVA-tumor-bearing C57BL/6 mice
BMDCs [8] = experiment: [Ca2+]int measurement (Fluo-3 AM); type: cell-based, mouse; conditions: 5 or 10 μg/mL Ca
Method: Fluo-3 AM kit (Cayman, 14960) was used to measure [Ca2+]int in BMDCs after treatment with AnCHNPs. Briefly, BMDCs were seeded into a 96-well plate at a density of 1×10^4 cells per well and incubated overnight. At different time points (0, 1, 2, 4, 8, and 24 hrs), medium was taken from the well, replenished with prewarmed (37° C.) probe-containing medium (to a final concentration of 5 μM). Cells were incubated for 30 mins under the same growth conditions. Then the loading solution was replaced with fresh medium, removing dye molecules nonspecifically attached to cell surface. Cells were incubated for another 30 mins to allow for complete de-esterification of the acetoxymethyl esters. Fluorescence (ex/em: 485/520 nm) was recorded on a microplate reader (Synergy Mx, BioTeK).

BMDCs [9] = experiment: BMDC maturation, flow cytometry for MHC-II and CD205; type: cell-based, mouse; conditions: 5 or 10 μg/mL, 24 h, no cancer cells
Method: Maturation BMDCs were seeded onto a 6-well plate at a density of 1×10^6 cells per well one day before the experiment. BMDCs were treated with PBS, CaCl2 solution (5 or 10 μg/mL), and AnCHNPs (5 or 10 μg/mL). After incubation for 24 hrs, supernatant was removed, and BMDCs were harvested by cell lifter. BMDCs were subsequently stained with MHCII-FITC (#107616) and CD205-APC (#138206) and analyzed flow cytometry. Also, BMDCs were treated with SiO2-PEG shell (10 μg/mL), harvested after 24 hrs incubation, stained with MHCII-FITC (#107616), CD80-PerCP-Cy5.5 (#560526), CD86-BV605 (#563055), CD40-PE (#12-0401-83), and OVA-APC (#17-5743-82), and analyzed by flow cytometry.

## [N-]=[N+]=[N-].[Na+] [azide, Sodium azide]
BMDCs [1]
  effect of endocytosis inhibitor on AnCHNPs uptake by DCs: reduced

## O=C(N/N=C/c1ccc(O)c(O)c1)c1cc2ccccc2cc1O [dynasore, Dynasore]
EL4 cells [2]
  effect of endocytosis inhibitor on uptake of PMA@CCNP-Ab: decreased
BMDCs [1]
  effect of endocytosis inhibitor on AnCHNPs uptake by DCs: inhibited

## CN(C)CCCN1c2ccccc2Sc2ccc(Cl)cc21 [chlorpromazine, Chlorpromazine]
BMDCs [1]
  effect of endocytosis inhibitor on AnCHNPs uptake by DCs: inhibited

## N.N.O=C([O-])C1(C(=O)[O-])CCC1.[Pt+2] [carboplatin]
[3]
  average survival: 15 days
  time by which all animals died: ≤ 3 weeks
  tumor growth: only marginally retarded tumor growth

## [Ca+2].[Cl-].[Cl-] [CaCl2, calcium chloride]
CFSE-labeled BMDCs
  numbers of DCs migrating to the bottom chamber: minimally affected DC migration
EL4 cells [4]
  Ca2+ concentration at which an effect on cell viability / significant toxicity appears: ≥ 100 µg/mL
EL4 cells [5]
  intracellular calcium levels: did not increase cellular calcium levels
[6]
  impact on DC activation: no positive impact on DC activation
[7]; 6 h co-incubation
  IFN-γ+ CTL frequency, splenocytes co-incubated with B16F10-OVA cells ex vivo: marginal T cell activation
[7]; Day 3 and Day 7, relative to PBS control, comparator
  change of serum cytokine levels (IL-1β, IL-6, TNF-α, IFN-γ, IL-12 elevated, IL-10 decreased): not
[7]; RT 10 Gy + 200 μg/kg i.t.
  frequency of Tregs (CD45+CD3+CD4+Foxp3+) in tumors: minimum impact
[7]; RT 10 Gy + 200 μg/kg i.t., tumor, Day 7
  tumor-infiltration of cytotoxic T cells (CTLs, CD45+CD3+CD8+): minimum impact
BMDCs [8]
  [Ca2+]int change: little [Ca^2+]int increase
BMDCs [9]
  CD205 expression in DCs: no impact
BMDCs [9]; relative to untreated DCs
  population and expression levels (MFI) of MHC-II+ DCs: no impact

## C[C@@H]1[C@H](O)[C@@H](C)/C=C/C=C/CC/C=C/C=C/C=C/C=C/C(O[C@H]2O[C@H](C)[C@@H](O)[C@H](N)[C@@H]2O)CC2O[C@](O)(CC(O)C(O)CCC(O)CC(O)CC(O)CC(=O)O[C@H]1C)CC(O)C2C(=O)O (some centres unmarked) [nystatin, Nystatin]
EL4 cells [2]
  effect of endocytosis inhibitor on uptake of PMA@CCNP-Ab: did not inhibit cellular uptake
BMDCs [1]
  effect of endocytosis inhibitor on AnCHNPs uptake by DCs: had no effect on the particle uptake

— patent US20260199254A1, “COMPOSITIONS AND METHODS OF USE THEREOF FOR INCREASING IMMUNE RESPONSES” (priority 2022, published 2026)
